Measurements: PMC12475274, “Harnessing indole scaffolds to identify small-molecule IRE1α inhibitors modulating XBP1 mRNA splicing” (Nature Communications, 2025)
Where “and” joins values, the source holds several entries; their conditions need not be identical. Equal values may be shown once. Entries after “also recorded” stand apart in the source; their conditions may differ.

Columns and labels:
[1] = target: T1, IRE1α (Homo sapiens, UniProt O75460); assay: Michaelis–Menten kinetic analysis with XBP1 RNA substrate; type: biochemical
T1 construct: Human IRE1α kinase and RNase domain (residues 547–977) was subcloned into pLIB plasmid; His tag (with TEV cleavage site) (N, cleaved yes); made in house; host or cells: Sf9 insect cells, baculovirus (Bac-to-Bac)
T1 sequence (O75460 547-977): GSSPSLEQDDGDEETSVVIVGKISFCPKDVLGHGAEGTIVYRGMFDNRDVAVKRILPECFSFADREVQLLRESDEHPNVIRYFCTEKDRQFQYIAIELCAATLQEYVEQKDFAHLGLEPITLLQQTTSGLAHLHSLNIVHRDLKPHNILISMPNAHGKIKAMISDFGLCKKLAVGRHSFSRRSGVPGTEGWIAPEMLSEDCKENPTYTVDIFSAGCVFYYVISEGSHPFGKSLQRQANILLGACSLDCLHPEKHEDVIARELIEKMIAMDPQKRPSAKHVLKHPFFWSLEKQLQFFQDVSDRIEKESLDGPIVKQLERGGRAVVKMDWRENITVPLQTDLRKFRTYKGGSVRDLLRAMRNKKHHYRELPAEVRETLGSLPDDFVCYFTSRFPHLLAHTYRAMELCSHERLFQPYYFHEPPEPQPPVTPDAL
Experimental: I/s (fluorescence intensity/second), 7.98 FL. I/s, 2.33 FL. I/s and 0.9 FL. I/s, respectively.
The dual-labeled RNA substrate with a FAM at 5’ and the BHQ-1 at 3’ containing the XBP1 sequence (5′FAM-[…]-3′BHQ1) was purchased from Integrated DNA Technologies (IDT). The FRET-based IRE1α RNase activity assay was carried out in reaction buffer containing 20 mM HEPES pH 7.5, 50 mM KOAc, 1 mM MgOAc2, 1 mM DTT, 0.05% v/v TritonX-100, at a total reaction volume of 20 μL in a 384-well black plate (4514, Corning). […] […] The indicated compound and IRE1α protein were incubated for 30 min at room temperature before the substrate was added to the reaction. The plate was then kinetically read over one hour at room temperature using a TECAN Spark plate reader. The measurement was carried out using the fluorescence top reading mode at the excitation wavelength of 485 nm and the emission wavelength of 535 nm with a 10 nm excitation and emission bandwidth. The linear part of the reaction curve was adopted and fitted with sample linear regression to obtain the slope, and the slope was adopted to reflect the reaction rate. The inhibition % was calculated by using the equation: inhibition% = 100 × (slope of DMSO control – slope of the sample)/(slope of DMSO control – slope of blank control), DMSO control: DMSO with protein and RNA substrate; Blank control: DMSO with RNA substrate. The IC50 values were calculated using the concentration-response model in GraphPad Prism 9.

[2] = system: XBP1 mRNA splicing in HCT 116 cells; assay: RT-qPCR of ER stress-induced XBP1 mRNA splicing, HCT 116; type: cell-based, human; settings: HCT 116 cells
Experimental: (§1) A549 cells, HCT 116 cells, and HT-29 cells were collected and seeded in 6-well plates at a density of 5 × 10^5 cells per well and cultured overnight to attach, then treated with compound or DMSO for 2 h, then 0.5 μg/mL final concentration of tunicamycin (Tm, MP Biomedi, 0215002805) were added to induce the ER stress for 2 h. After treatment, total RNA was purified using an RNeasy mini kit (Qiagen, 74106). 500 ng of total RNA was used for reverse transcription using the High-Capacity cDNA Reverse Transcription Kits (Thermo Fisher, 4368814). cDNA was diluted 1: 5 using RNase-free water, and 1 μL CDNA was used for each qPCR reaction. The qPCR was performed using PowerUp™ SYBR™ Green Master Mix (Thermo Fisher, A25742) with 10 µL reaction volume using Bio-Rad CFX96 Real-Time PCR Detection System following the standard cycling mode (primer Tm ≥ 60 °C) on the manufacturer’s protocol. Data was analyzed using the 2^- ΔΔCt method. The primers used are listed in Supplementary Table S3. The inhibition % was calculated by using the equation: inhibition% = 100× (normalized Tm control - normalized of the sample)/(normalized Tm control - normalized DMSO control). Tm control: Cells treated with tunicamycin; DMSO control: Cells treated with DMSO only.

[3] = system: IRE1α transcription level in A549 cells; assay: RT-qPCR of IRE1α transcription level, A549; type: cell-based, human; settings: A549 cells
Experimental: as §1

[4] = target: T2, IRE1α in A549 cells (Homo sapiens, UniProt O75460); assay: Cellular thermal shift assay (CETSA) in A549 cells; type: cell-based
T2 construct: endogenous in cells; host or cells: A549 cells
T2 sequence (O75460 19-977): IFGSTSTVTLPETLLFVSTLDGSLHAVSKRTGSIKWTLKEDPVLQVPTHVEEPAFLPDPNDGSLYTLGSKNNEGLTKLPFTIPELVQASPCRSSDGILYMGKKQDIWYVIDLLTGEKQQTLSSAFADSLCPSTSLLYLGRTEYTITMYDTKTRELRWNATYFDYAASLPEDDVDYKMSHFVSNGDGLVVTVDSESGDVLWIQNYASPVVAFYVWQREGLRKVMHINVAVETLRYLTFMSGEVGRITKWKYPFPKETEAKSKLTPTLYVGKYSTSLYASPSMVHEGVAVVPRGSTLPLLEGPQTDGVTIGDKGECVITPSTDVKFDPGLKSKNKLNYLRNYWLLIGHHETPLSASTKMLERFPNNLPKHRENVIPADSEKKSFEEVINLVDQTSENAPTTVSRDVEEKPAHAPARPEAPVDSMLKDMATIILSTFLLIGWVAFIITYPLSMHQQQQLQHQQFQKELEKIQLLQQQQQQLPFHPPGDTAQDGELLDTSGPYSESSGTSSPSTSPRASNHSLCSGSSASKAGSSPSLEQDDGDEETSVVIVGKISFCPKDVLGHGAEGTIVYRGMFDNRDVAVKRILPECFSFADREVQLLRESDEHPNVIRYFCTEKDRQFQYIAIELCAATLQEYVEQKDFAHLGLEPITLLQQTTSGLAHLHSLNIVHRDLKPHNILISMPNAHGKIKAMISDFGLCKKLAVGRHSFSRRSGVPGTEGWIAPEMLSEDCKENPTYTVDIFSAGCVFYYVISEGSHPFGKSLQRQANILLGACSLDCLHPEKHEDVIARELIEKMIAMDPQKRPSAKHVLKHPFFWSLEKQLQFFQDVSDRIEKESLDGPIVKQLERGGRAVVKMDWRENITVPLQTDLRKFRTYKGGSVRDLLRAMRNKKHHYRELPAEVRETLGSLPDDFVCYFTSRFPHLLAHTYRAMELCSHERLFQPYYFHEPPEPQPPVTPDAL
Experimental: A549 cells were harvested and seeded into 100 mm standard cell culture dishes at 80% confluency and cultured overnight. For the IA107 experiment, cells were gently washed with pre-cooled DPBS (Gibco,14190169) and lysed in RIPA buffer (Sigma, R0278) supplemented with phosphatase inhibitor (Roch, 4906845001) and 1× protease inhibitor cocktail (Sigma, P8340) for 30 min on ice. Cell lysates were centrifuged at 18,000 × g for 30 min at 4 °C and the supernatants were collected. The lysates were collected together and then aliquoted into 550 μL, the aliquots were incubated with different concentrations of IA107 with a final concentration of 0.1% DMSO for 30 min at room temperature. […]
For the IAPD1 experiment, A549 cells were treated with different concentrations of IAPD1 or DMSO for 4 h (final 0.1% DMSO). […] Lysates were collected by scraping and centrifuged at 18,000 × g for 30 min at 4 °C, and the protein concentrations of the supernatants were quantified using a BCA protein assay kit (Thermo Scientific, 23227) and diluted to 4 μg/μL, then cell lysate was aliquoted into 10 PCR tubes, with 50 μL of lysate per tube. […] After heating, samples were centrifuged at 18,000 × g for 30 min at 4 °C, and supernatants were collected and analyzed by western blot using the method and antibodies aforementioned.

[5] = system: IRE1α; settings: Fig. 1b; read-out: IC50 of reported IRE1α inhibitor; cited from earlier work

## Cc1c(CCC(=O)O)c2cc(Br)ccc2n1C(=O)c1ccccc1 [IA107]
[1]
  inhibition mechanism towards the XBP1 mRNA substrate: non-competitive
[1]; 0.01 μM IA107
  Vmax: 7.98 FL. I/s
[1]; 0.1 μM IA107
  Vmax: 2.33 FL. I/s
[1]; 1 μM IA107
  Vmax: 0.9 FL. I/s
[1]; RNA 5000 nM, IA107 0.01 μM
  IRE1a Velocity: 7.329 FL.I/s and 6.249 FL.I/s
[1]; RNA 5000 nM, IA107 0.1 μM
  IRE1a Velocity: 1.807 FL.I/s and 2.323 FL.I/s
[1]; RNA 5000 nM, IA107 1 μM
  IRE1a Velocity: 0.681 FL.I/s and 0.661 FL.I/s
[1]; RNA 10000 nM, IA107 0.01 μM
  IRE1a Velocity: 7.224 FL.I/s and 6.354 FL.I/s
[1]; RNA 10000 nM, IA107 0.1 μM
  IRE1a Velocity: 1.848 FL.I/s and 1.988 FL.I/s
[1]; RNA 10000 nM, IA107 1 μM
  IRE1a Velocity: 0.902 FL.I/s and 0.839 FL.I/s

## CCOC(=O)CCc1c(C)n(C(=O)c2ccccc2)c2ccc(Br)cc12 [IAPD1]
[2]
  inhibition of ER stress-induced XBP1 mRNA splicing: inhibited
[2]; Homo sapiens
  IC50: 220 nM
[3]
  effect on IRE1α transcription level: minimal impacts; also recorded: not affected
[4]; A549 cells
  treatment concentration below which stabilizing effects are negligible (CETSA): lower than 2.22 μM
[4]; A549 cells treated 4 h
  thermal stabilization of cellular IRE1α, CETSA: dose-dependently stabilized; also recorded: concentration-dependently stabilized; also recorded: concentration-dependently increased

## Cc1ccc2c(NS(=O)(=O)c3ccccc3Cl)cccc2c1Oc1ncccc1-c1ccnc(N[C@H]2CCCNC2)n1 [KIRA8]
[5]
  IC50: 6 nM
